Assay results published in doi:10.1101/2025.11.03.686257v1 (bioRxiv, 2025).

Key:
Providencia stuartii = assay: Antibiotic resistance characterization of clinical isolate; assay type: cell-based; settings: University Hospital Pontchaillou
Hepa1-6 HCC cell line = assay: Peptide-Dylight488 streptavidin cell binding assay by flow cytometry; assay type: cell-based, murine; settings: peptide-Dylight488 streptavidin complexes
Huh7 HCC cell line = assay: as above; assay type: cell-based, human; settings: peptide-Dylight488 streptavidin complexes
RLEC-like S3 cells = assay: as above; assay type: cell-based, rat; settings: peptide-Dylight488 streptavidin complexes, established line
[1] = tested on: normal human hepatocytes in primary culture; assay: as above; assay type: cell-based; settings: peptide-Dylight488 streptavidin complexes
[2] = tested on: hepatic stellar-like LX2 cells; assay: as above; assay type: cell-based, human; settings: peptide-Dylight488 streptavidin complexes
[3] = tested on: bipotent progenitor HepaRG cells 3 days after plating; assay: as above; assay type: cell-based, human; settings: P11^Chol-Dylight488 streptavidin complexes
HepaRG-SP cells = assay: as above; assay type: cell-based, human; settings: P11^Chol-Dylight488 streptavidin complexes
[4] = Solubility in aqueous solution; assay type: physicochemical; settings: stock solutions prepared in PBS at 1mM
HEK293T cells = assay: Peptide-Dylight488 streptavidin cell binding assay by flow cytometry; assay type: cell-based, human; settings: peptide-Dylight488 streptavidin complexes
HepG2 cells = assay: as above; assay type: cell-based, human; settings: peptide-Dylight488 streptavidin complexes

Molecule | antibiotic resistance/sensitivity of the strain (Providencia stuartii) | binding to cells (Hepa1-6 HCC cell line) | binding to cells (Huh7 HCC cell line) | binding to cells (RLEC-like S3 cells) | binding to cells [1] | binding to cells [2] | further results
CC1(C)S[C@@H]2[C@H](NC(=O)[C@H](N)c3ccccc3)C(=O)N2[C@H]1C(=O)O [ampicillin] | resistant | – | – | – | – | – | –
CC[C@H]1OC(=O)[C@H](C)[C@@H](O[C@H]2C[C@@](C)(OC)[C@@H](O)[C@H](C)O2)[C@H](C)[C@@H](O[C@@H]2O[C@H](C)C[C@H](N(C)C)[C@H]2O)[C@](C)(O)C[C@@H](C)C(=O)[C@H](C)[C@@H](O)[C@]1(C)O [erythromycin] | resistant | – | – | – | – | – | –
GTLNNIPTY-YWGKGY [Provid-Stu] | – | no binding | no binding | bound | no binding | no binding | –
NC[C@H]1O[C@H](O[C@H]2[C@H](O)[C@@H](O[C@H]3O[C@H](CO)[C@@H](O)[C@H](N)[C@H]3O)[C@H](N)C[C@@H]2N)[C@H](O)[C@@H](O)[C@@H]1O [kanamycin] | sensitive | – | – | – | – | – | –
O=C(N[C@H](CO)[C@H](O)c1ccc([N+](=O)[O-])cc1)C(Cl)Cl [chloramphenicol] | sensitive | – | – | – | – | – | –
amoxicillin + clavulanic acid | resistant | – | – | – | – | – | –
TFLNSVPTYSYWGGGS [P11^Chol] | – | no binding | no binding | bound | no binding | no binding | increase in fluorescence intensity, HepaRG D3 versus HepaRG-SP cells [3]: 4 fold; percentage of positive cells ([3]; HepaRG D3): ~18%; percentage of positive cells (HepaRG-SP cells): less than 1%; solubility in aqueous solution [4]: high solubility
AFLNSNGLPTYSPKIS [Hel-Pyl] | – | no binding | no binding | bound | no binding | no binding | –
EYLNSILSYSPSYYWI [E-select] | – | – | – | – | – | – | binding to cells (HEK293T cells): significant binding; binding to cells (HepG2 cells): significant binding
gentamycin | sensitive | – | – | – | – | – | –
